We go through 21 compounds from patent publication US8906914B2, “Ethylene diamine modulators of fatty acid hydrolase” (priority 2009, dated 2014).

The target in experiment [1] is T1, FAAH (Homo sapiens, UniProt O00519).
T1 sequence (O00519 1-579): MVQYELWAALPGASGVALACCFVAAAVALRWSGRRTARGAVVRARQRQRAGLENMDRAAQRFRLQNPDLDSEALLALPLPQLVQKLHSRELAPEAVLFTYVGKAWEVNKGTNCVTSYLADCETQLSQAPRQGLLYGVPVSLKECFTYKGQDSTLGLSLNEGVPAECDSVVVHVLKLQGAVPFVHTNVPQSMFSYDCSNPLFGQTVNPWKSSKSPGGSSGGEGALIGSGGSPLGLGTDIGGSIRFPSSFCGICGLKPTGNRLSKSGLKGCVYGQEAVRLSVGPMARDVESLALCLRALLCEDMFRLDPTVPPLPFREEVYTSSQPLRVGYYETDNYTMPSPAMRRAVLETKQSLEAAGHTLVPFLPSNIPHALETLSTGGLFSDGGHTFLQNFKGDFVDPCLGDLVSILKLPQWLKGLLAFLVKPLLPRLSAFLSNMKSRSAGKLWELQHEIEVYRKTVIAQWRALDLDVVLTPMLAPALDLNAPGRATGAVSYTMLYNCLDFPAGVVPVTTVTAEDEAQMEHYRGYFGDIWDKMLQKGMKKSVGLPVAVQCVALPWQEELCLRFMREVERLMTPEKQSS
The following applies: reported; cited from earlier work.

Experiment [2] relates to thermal nociception. The settings on record: rats; WO 04/033652; cited from earlier work.
Experiment [3] concerns thermal nociception. The following applies: rat; cited from earlier work.
The test system of another experiment is nociception. The settings on record: rat; Kathuria 2003; cited from earlier work.
Another experiment deals with anxiety. The following applies: rats; Kathuria 2003; cited from earlier work.
Experiment [4] deals with acute thermal nociception. The following applies: rats; WO 02/087569; cited from earlier work.
The test system of the next experiment is neuropathic pain. The following applies: rats; WO 02/087569; cited from earlier work.
The target in experiment [5] is T1, FAAH. As to the kind of experiment: Human FAAH assay (Assay Method 1), 3H-anandamide hydrolysis in cell homogenate. Format: biochemical. More on the design: expressed in transfected cells; alternatively T84 frozen cell pellets (endogenous FAAH). An outline of the steps: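 Homogenate of SK-N-MC cells stably transfected with human FAAH, incubated with compound and 80 nM (final) 3H-anandamide for 1 h at rt. Released 3H-ethanolamine separated from substrate on activated charcoal by centrifugation and counted by scintillation; ">" values denote solubility limit or top concentration tested.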

The next experiment deals with T2, Rat FAAH-1 (Rattus norvegicus, UniProt P97612).
T2 construct: expressed in transfected cells
T2 sequence (P97612 1-579): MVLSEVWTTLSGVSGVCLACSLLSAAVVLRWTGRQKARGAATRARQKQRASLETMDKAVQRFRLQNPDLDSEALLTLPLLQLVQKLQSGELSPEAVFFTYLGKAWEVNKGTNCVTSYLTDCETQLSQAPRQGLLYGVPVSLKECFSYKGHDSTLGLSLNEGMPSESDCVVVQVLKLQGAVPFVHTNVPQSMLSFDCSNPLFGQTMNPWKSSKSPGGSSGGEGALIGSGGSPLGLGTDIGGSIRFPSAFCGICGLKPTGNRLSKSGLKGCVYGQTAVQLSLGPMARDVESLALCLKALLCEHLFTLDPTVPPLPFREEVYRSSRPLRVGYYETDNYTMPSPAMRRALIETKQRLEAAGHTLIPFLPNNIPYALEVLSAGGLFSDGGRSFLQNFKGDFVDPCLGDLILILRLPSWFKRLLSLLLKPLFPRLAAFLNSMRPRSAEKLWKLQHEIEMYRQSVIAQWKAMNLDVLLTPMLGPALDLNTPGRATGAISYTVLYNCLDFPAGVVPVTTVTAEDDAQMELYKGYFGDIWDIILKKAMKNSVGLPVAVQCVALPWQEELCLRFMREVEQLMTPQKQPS
In words: Rat FAAH-1 assay (Assay Method 2), 3H-anandamide hydrolysis in cell homogenate. Type of experiment: biochemical. An outline of the steps:
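Homogenate of SK-N-MC cells stably transfected with rat FAAH cDNA, incubated with test compound and 80 nM final 3H-anandamide (ethanolamine-labelled) for 1 h at rt. Released 3H-ethanolamine separated from substrate on activated charcoal filters by centrifugation and counted by scintillation.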

The subject of the next experiment is spasticity. The settings on record: Baker 2001; cited from earlier work.

pIC50: −log10 of the molar value. Counter-ions that a name gives are not always drawn.

For the compound `O=C(CCCCCCc1ccccc1)c1ncc(-c2ccccn2)o1` [OL-135], the “inhibition of FAAH” value at FAAH [1] was “potent inhibitor”. Besides, the “analgesic activity in tail emersion test” value in the experiment on thermal nociception [2] is on record as “analgesic activity”. For the same compound, in the experiment on thermal nociception [3], the “analgesic efficacy/activity in hot plate test” value is reported as “analgesic activity”.
With `NC(=O)c1cccc(-c2cccc(OC(=O)NC3CCCCC3)c2)c1` [URB-597], in the experiment on nociception, the “analgesic efficacy in formalin test” value was “analgesic efficacy”. Also, the “analgesic efficacy/activity in hot plate test” value in the experiment with thermal nociception [3] is reported as “analgesic efficacy”. Besides, the “efficacy in zero plus maze model of anxiety” value in the experiment with anxiety is recorded as “efficacy”.
`Cc1nc(-c2ccccc2)c(-c2ccccc2)n1CCCCCCNC(=O)Oc1ccccc1F` [BMS-1]: in [4], the “analgesic effect in Hargraves test” value is reported as “analgesic effect”. In addition, the “analgesic effect in Chung spinal nerve ligation model” value in the experiment on neuropathic pain is listed as “analgesic effect”.
What is called pIC50 is the negative decadic logarithm of the IC50, by convention in mol/L. In the case of `N[C@H](CNc1cc(-c2ccc(C(F)(F)F)c(Cl)c2)ncn1)c1ccc(C(F)(F)F)cc1` [Example 29, (1S)—N^2-[6-(3-Chloro-4-trifluoromethyl-phenyl)-pyrimidin-4-yl]-1-(4-trifluoromethyl-phenyl)-ethane-1,2-diamine], the pIC50 at FAAH [5] is 5.85; against Rat FAAH-1 it was 5.77.
The like results for `CCOc1ccc(-c2cc(NC[C@H](N)c3ccccc3)ncn2)cc1` [Example 19, (1R)—N^2-[6-(4-Ethoxyphenyl)pyrimidin-4-yl]-1-phenylethane-1,2-diamine hydrochloride acid salt] were, in that order, 7.15 and 6.00.
Turning to `N[C@@H](CNc1cc(-c2ccc3c(C(F)(F)F)noc3c2)ncn1)c1ccc(F)cc1` [Example 65, (1R)—N^2-1-(4-Fluoro-phenyl)-[6-(3-trifluoromethyl-benzo[d]isoxazol-6-yl)-pyrimidin-4-yl]ethane-1,2-diamine, trifluoroacetic acid salt], the results for the pIC50 at FAAH [5] and against Rat FAAH-1 were 7.35 and 7.24, respectively.
The like results for `O=C(N[C@@H](CNc1cc(-c2ccc(C(F)(F)F)c(Cl)c2)ncn1)c1ccccc1)C(F)(F)F` [Example 26, N-[(1R)-2-({6-[3-chloro-4-(trifluoromethyl)phenyl]pyrimidin-4-yl}amino)-1-phenylethyl]-2,2,2-trifluoroacetamide] were, in that order, 5.80 and less than 5.00.
In the case of `N[C@@H](CNc1cc(-c2ccc(C(F)(F)F)c(Cl)c2)ncn1)c1ccc(C(F)(F)F)cc1` [Example 30, (1R)—N^2-[6-(3-Chloro-4-trifluoromethyl-phenyl)-pyrimidin-4-yl]-1-(4-trifluoromethyl-phenyl)-ethane-1,2-diamine], the pIC50 on FAAH [5] was 6.80; at Rat FAAH-1 it was 7.28.
Consider `CCCCCCCCCCCCCCCCS(=O)(=O)F` [AM374], for which the “spasticity in CREAE mice” value in the experiment with spasticity is “significantly reduce spasticity”.
`CS(=O)(=O)c1ccc([C@@H](N)CNc2cc(-c3ccc(C(F)(F)F)c(Cl)c3)ncn2)cc1` [Example 63, (1R)—N^2-[6-(3-Chloro-4-trifluoromethyl-phenyl)-pyrimidin-4-yl]-1-(4-methanesulfonyl-phenyl)-ethane-1,2-diamine]: the pIC50 against FAAH [5] and at Rat FAAH-1 was less than 5.00 throughout.
For the compound `N[C@@H](CNc1cc(-c2ccc(C(F)(F)F)c(Cl)c2)ncn1)c1ccc2c(c1)OC(F)(F)O2` [Example 32, (1R)—N^2-[6-(3-Chloro-4-trifluoromethyl-phenyl)-pyrimidin-4-yl]-1-(2,2-difluoro-benzo[1,3]dioxol-5-yl)-ethane-1,2-diamine], the pIC50 against FAAH [5] is 7.52; against Rat FAAH-1 it was 7.96.
On to `N[C@@H](CNc1cc(-c2ccc(Cl)c(Cl)c2)ncn1)c1ccccc1` [Example 16, (1R)—N^2-[6-(3,4-Dichlorophenyl)pyrimidin-4-yl]-1-phenylethane-1,2-diamine hydrochloride acid salt], for which the results for the pIC50 at FAAH [5] and on Rat FAAH-1 were 7.05 and 6.30, respectively.
The like results for `N[C@@H](CNc1cc(-c2cccc(OC(F)(F)F)c2)ncn1)c1ccccc1` [Example 18, (1R)-1-Phenyl-N^2-{6-[3-(trifluoromethoxy)phenyl]pyrimidin-4-yl}ethane-1,2-diamine hydrochloride acid salt] were, in that order, 6.04 and less than 5.00.
`N[C@H](CNc1cc(-c2ccc(C(F)(F)F)c(Cl)c2)ncn1)c1ccccc1` [Example 3, (1S)—N^2-{6-[3-Chloro-4-(trifluoromethyl)phenyl]pyrimidin-4-yl}-1-phenylethane-1,2-diamine hydrochloride acid salt]: the pIC50 on FAAH [5] was 5.89; at Rat FAAH-1, 5.62.
For `N[C@@H](CNc1cc(-c2ccc3c(C(F)(F)F)noc3c2)ncn1)c1ccccc1` [Example 13, (1R)-1-Phenyl-N^2-[6-(3-(trifluoromethyl)-benzo[d]isoxazol-6-yl)pyrimidin-4-yl]-ethane-1,2-diamine hydrochloride acid salt], the pIC50 against FAAH [5] was 7.36; against Rat FAAH-1, 7.15.
The like results for `N[C@H](CNc1cc(-c2ccc(C(F)(F)F)c(Cl)c2)ncn1)c1cccc(F)c1` [Example 36, (1S)—N^2-[6-(3-Chloro-4-trifluoromethyl-phenyl)-pyrimidin-4-yl]-1-(3-fluoro-phenyl)-ethane-1,2-diamine, trifluoroacetic acid salt] were, in that order, 6.00 and 5.59.
The like results for `N[C@H](CNc1cc(-c2ccc(C(F)(F)F)c(Cl)c2)ncn1)c1ccc(Cl)c(Cl)c1` [Example 42, (1S)—N^2-[6-(3-Chloro-4-trifluoromethyl-phenyl)-pyrimidin-4-yl]-1-(3,4-dichloro-phenyl)-ethane-1,2-diamine] were, in that order, 5.10 and 5.30.
The like results for `N[C@H](CNc1cc(-c2ccc(C(F)(F)F)c(Cl)c2)ncn1)c1ccc2c(c1)OC(F)(F)O2` [Example 31, (1S)—N^2-[6-(3-Chloro-4-trifluoromethyl-phenyl)-pyrimidin-4-yl]-1-(2,2-difluoro-benzo[1,3]dioxol-5-yl)-ethane-1,2-diamine] were, in that order, 6.20 and 6.11.
Regarding `N[C@@H](CNc1cc(-c2ccc(SC(F)(F)F)cc2)ncn1)c1ccccc1` [Example 11, (1R)-1-Phenyl-N^2-(6-{4-[(trifluoromethyl)sulfanyl]phenyl}pyrimidin-4-yl)ethane-1,2-diamine hydrochloride acid salt], the pIC50 at FAAH [5] was 7.72; against Rat FAAH-1, 6.77.
With `N[C@@H](CNc1cc(-c2ccc(C(F)(F)F)c(Cl)c2)ncn1)c1ccc(F)c(Cl)c1` [Example 47, (1R)—N^2-1-(3-Chloro-4-fluoro-phenyl)-[6-(3-chloro-4-trifluoromethyl-phenyl)-pyrimidin-4-yl]-ethane-1,2-diamine], the results for the pIC50 at FAAH [5] and against Rat FAAH-1 were 6.92 and 6.94, respectively.
The like results for `N#Cc1ccc([C@@H](N)CNc2cc(-c3ccc(C(F)(F)F)c(Cl)c3)ncn2)cc1` [Example 34, (1R)-4-{1-Amino-2-[6-(3-chloro-4-trifluoromethyl-phenyl)-pyrimidin-4-ylamino]-ethyl}-benzonitrile] were, in that order, 7.11 and 6.89.
